Reference: publication PMC4514850, “A Novel TGR5 Activator WB403 Promotes GLP-1 Secretion and Preserves Pancreatic β-Cells in Type 2 Diabetic Mice” (PLoS ONE, 2015)
Entries after “also recorded” stand apart in the source; their conditions may differ.

How the values were obtained:
gallbladders of mice = assay: gallbladder filling in normal mice; type: in vivo; settings: 200 mg/kg ip, normal mice fasted overnight, gallbladders removed 30 min later, n = 10
Text: Fig 1 WB403 activated TGR5 and promoted active GLP-1 secretion. (A) WB403 stimulated hTGR5 in CRE-luciferase report system at the concentration range of 1–20 μmol/l. (B) WB403 stimulated hTGR5 specific cAMP accumulation at the concentration range of 1–50 μmol/l. n = 3. **p<0.01, ***p<0.001 vs. DMSO (+TGR5) group. (C) The hTGR5 targeted CRE-luciferase activity of WB403 and ZY403. […] (D) Effect of WB403 and ZY403 on gallbladders of mice. Normal mice were fasted overnight and treated with compounds (200 mg/kg) or vehicle (DMSO) by ip injection. Gallbladders (GB) were removed 30 min later and volumes measured then normalized to body weight (B.W.). n = 10. **p<0.01 vs. vehicle group. (E) Structure of WB403 and ZY403. WB403 promoted GLP-1 secretion in NCI-H716 cells (F), primary enterocytes (G), and MIN6 cells (H). n = 3. *p<0.05, **p<0.01, ***p<0.001 vs. vehicle group. (I) WB403 promoted GLP-1 in ICR mice. n = 5. **p<0.01 vs. vehicle group. Values represent mean ± SEM.

HFD/STZ mice = assay: oral glucose tolerance test in HFD/STZ mice; type: in vivo; settings: 2 g/kg glucose, oral 50, 100 mg/kg 30 min before load
Procedure: For generation of nongenetic mice model of type 2 diabetes, ICR mice were fed with high fat diet (HFD, with 60% fat, Research Diets) for three weeks, then fasted for 5 h before receiving a single dose of streptozotocin (STZ, Sigma) intraperitoneally (ip) at 80 mg/kg to induce partial insulin deficiency. […] Diabetes was assessed using conventional criteria. Mice with similar degree of hyperglycemia and body weight were randomized into various groups in order to get a similar average PBG in each group.
Mice were fasted overnight (14 h) before glucose tolerance tests. Normal mice received a 4 g/kg glucose challenge and for diabetic mice it’s 2 g/kg. WB403 at 50, 100 mg/kg, or sitagliptin at 100 mg/kg were administrated orally 30 min prior to glucose load (n = 10). For vehicle group, 0.5% CMC was administrated. Blood glucose levels were measured from tail bleeds with a glucometer (Roche, Accu-Chek Performa) at specified time points. Animals were treated and assessed in the order of the vehicle, WB403 50, 100 mg/kg and sitagliptin 100 mg/kg group.
Fig 2 Effects of WB403 on glucose tolerance during OGTT in normal and diabetic mice. OGTT time course and AUC in normal mice (A, B), HFD/STZ mice (C, D) and db/db mice (E, F). Values represent mean ± SD (n = 10). *p<0.05, **p<0.01, ***p<0.001 vs. vehicle group. Asterisks in A, C and E reflect significance between WB403 100 mg/kg and vehicle group.

hGPR119 = target: T1, hGPR119 (Homo sapiens, UniProt Q8TDV5); assay: GPR119-dependent cAMP accumulation in transfected 293T cells; type: cell-based; settings: 10, 20 μmol/l
T1 construct: host or cells: 293T cells, transient transfection with pGPR119
T1 sequence (Q8TDV5 1-335): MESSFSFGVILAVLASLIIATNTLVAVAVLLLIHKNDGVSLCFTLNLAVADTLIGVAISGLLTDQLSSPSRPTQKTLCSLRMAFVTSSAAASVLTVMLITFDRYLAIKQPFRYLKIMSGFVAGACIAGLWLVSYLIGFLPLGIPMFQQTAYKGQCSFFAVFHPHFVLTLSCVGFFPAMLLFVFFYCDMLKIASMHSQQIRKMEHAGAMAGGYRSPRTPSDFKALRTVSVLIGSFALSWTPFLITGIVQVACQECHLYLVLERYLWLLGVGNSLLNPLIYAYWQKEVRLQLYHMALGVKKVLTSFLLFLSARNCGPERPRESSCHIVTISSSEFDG
Procedure: For human TGR5 luciferase (luc) assay, 293T cells were co-transfected with pCRE-luc, pTGR5 (kind gift from Prof. Johan Auwerx, Ecole Polytechnique Fédérale de Lausanne, Lausanne, Switzerland) and pRenilla (Promega, USA). WB403 was added 5 h later. Cells were harvested after 16 h and subjected to luciferase analysis on Lumistar Optima chemiluminescent detector (BMG labtech, Germany). For cAMP testing, 293T cells transiently transfected with pTGR5 or pGPR119 (GeneCopoeia, USA) were washed by FBS-free DMEM, and stimulated with WB403 in FBS-free DMEM containing 3-isobutyl-1-methyl-xanthine (IBMX, Sigma). Cell lysates were collected 30 min later and used for cAMP ELISA assay. FLIPR Calcium 5 assay kit (Molecular Devices, USA) was used for calcium mobilization assay. 293-GPR40 stable cells (kindly provided by Prof. Naiming Zhou of Zhejiang University, Hanzhou, China) or 293 cells transient transfected with GPR120 were seeded at 50,000 cells per well in black-walled clear-bottomed 96-well plates (Costar). […] Increase of the intracellular Ca^2+ concentration was monitored by Flexstation 3 system (Molecular Devices, USA).
The GLP-1 (active) ELISA kit was purchased from Millipore, and insulin ELISA kit was from Mercodia. For quantitative determination of cAMP, a competitive enzyme immunoassay kit from R&D system was used. […]

In the case of `CCc1cc(-c2nc(C)c(COCc3ccc(Br)cc3)s2)ccn1` [WB403, 4-(5-((4-bromobenzyloxy)-methyl)-4-methylthiazol-2-yl)-2-ethylpyridine], the gallbladder filling (gallbladders of mice) is reported as “did not”, the “blood glucose tolerance (OGTT) vs vehicle” value (HFD/STZ mice) is reported as “The same results” and the “hGPR119 dependent cAMP accumulation” value (hGPR119) is reported as “did not show significant stimulation activity; also recorded: no significant stimulation effect”.
